Source: paper PMC9611727, “Optimization of a Novel Mandelamide-Derived Pyrrolopyrimidine Series of PERK Inhibitors” (Pharmaceutics, 2022)
Converted amounts (≈) assume the structure as drawn.

Key:
[1] = Caco-2 permeability / efflux; type: in vitro ADME; conditions: human, Caco-2, pH 7.4; for efflux ratio at 120 min, 5 µM: Papp (B-to-A) / Papp (A-to-B)
Procedure: P-gp Substrate Assessment using Caco-2 Monolayers
Caco-2 cells (clone C2BBe1) were obtained from American Type Culture Collection (Manassas, VA). Hanks’ balanced salt solution, valspodar and lucifer yellow were obtained from Sigma-Aldrich (St. Louis, MO). All solvents were obtained from commercial sources and used without further purification. Cell monolayers were grown to confluence on collagen-coated, microporous membranes in 12-well assay plates. Details of the plates and their certification are shown below. The permeability assay buffer was Hanks’ balanced salt solution (HBSS) containing 10 mM HEPES and 15 mM glucose at a pH of 7.4. The buffer in the receiver chamber also contained 1% bovine serum albumin. The dosing solution concentration was 5 μM of test article in the assay buffer +/- 1 μM valspodar. Cells were first pre-incubated for 30 minutes with HBSS containing +/- 1 μM valspodar. Cell monolayers were dosed on the apical side (A-to-B) or basolateral side (B-to-A) and incubated at 37°C with 5% CO2 in a humidified incubator. Samples were taken from the donor and receiver chambers at 120 minutes. Each determination was performed in duplicate. The flux of lucifer yellow was also measured post-experimentally for each monolayer to ensure no damage was inflicted to the cell monolayers during the flux period. All samples were assayed by LC-MS/MS using electrospray ionization.
LC-MS/MS Analysis using the PE Sciex API 4000 mass spectrometer […]
Column: Waters ACQUITY UPLC BEH Phenyl 30 × 2.1 mm, 1.7 µm
Mobile Phase Buffer: 25 mM ammonium formate buffer, pH 3.5
Aqueous Reservoir (A): 90% water, 10% buffer
Organic Reservoir (B): 90% acetonitrile, 10% buffer
Total Run Time: 1.00 minute
Autosampler: 10 µL injection volume
Wash1: water/methanol/2-propanol:1/1/1; with 0.2% formic acid
Wash2: 0.1% formic acid in water
Instrument: PE SCIEX API 4000
Interface: Turbo Ionspray
Mode: Multiple Reaction Monitoring (Negative ion mode)
Method: 1.0 minute duration
Mass Spectrometer Settings
Data Analysis and Calculations
The apparent permeability (Papp) and percent recovery were calculated as follows:
Papp = (dCr/dt) × Vr/(A × CA)
Percent recovery = 100 × ((V × Cfinal) + (V × Cfinal)) / (V × C ) […]
dCr/dt is the slope of the cumulative receiver concentration versus time in µM s-1;
Vr is the volume of the receiver compartment in cm3;
Vd is the volume of the donor compartment in cm3;
A is the area of the insert (1.13 cm2 for 12-well);
CA is the average of the nominal dosing concentration and the measured 120 minute donor concentration in μM;
CN is the nominal concentration of the dosing solution in μM;
Cfinal is the cumulative receiver concentration in μM at the end of the incubation period; […]
Cd is the concentration of the donor in μM at the end of the incubation period.
Efflux ratio (ER) is defined as Papp (B-to-A) / Papp (A-to-B). […]

[2] = Plasma protein binding (RED dialysis), human; type: in vitro ADME; conditions: both sexes, pooled human plasma, pH 7.4
Source text: (§1) Verapamil hydrochloride and tamoxifen were obtained from Sigma-Aldrich. […]
(§2) Pooled mixed gender human donor plasma, Sprague Dawley male rat plasma, CD-1 (ICR) male mouse plasma and male beagle dog plasma were obtained from Bioreclamation Inc. (Westbury, NY). Reusable Teflon base plate, RED Device inserts, and BupH Phosphate Buffered Saline packs (0.1 M sodium phosphate and 0.15 M sodium chloride when dissolved in 0.5 L water) were obtained from Thermo Scientific (Waltham, MA). Propranolol was obtained from Sigma-Aldrich (St. Louis, MO). All solvents were obtained from commercial sources and used without further purification.
(§3) Frozen plasma was thawed and the pH of plasma and BupH phosphate buffered saline was adjusted to 7.4 prior to dialysis. Into each well of a reusable Teflon 48-well base plate a RED insert was placed open end up. Ten microliters (10 µL) of the test compound (0.1 mM in acetonitrile/water, 1:1 v/v) was added to 990 µL of plasma to achieve 1 µM final concentration. The spiked plasma (200 µL) was added to the sample chamber, which is indicated by the red retainer ring (donor side). To the other side (receiver side), 350 µL of BupH phosphate buffered saline (pH 7.4) was added. A buffer-to-buffer assay was also performed to measure equilibrium across the membrane in the absence of plasma protein.
(§4) Propranolol was used as a positive control. All samples were prepared in triplicate. The RED device base plate was then sealed and placed in a shaking incubator set to maintain 37°C and 200 rpm for four hours.
(§5) After incubation, 100 µL of each sample was combined with an equal volume of either plasma or buffer, to create a similar matrix for all samples. Blank buffer was added to plasma samples, and vice versa. Samples from the incubation, along with the original compound-spiked plasma samples, were prepared for analysis in the same manner. Protein precipitation by addition of two parts of ice-cold acetonitrile to one part of reaction volume was carried out. To ensure complete protein precipitation samples were sealed and placed overnight at 4°C. The next morning samples were centrifuged at 3,600 rpm for 15 minutes. The supernatants (70 µL) were supplemented with an equal volume of internal standard solution (0.15 µM verapamil in water) and subjected to LC-MS/MS analysis.

[3] = Kinetic aqueous solubility in PBS pH 7.4; type: physicochemical; conditions: phosphate buffered saline (PBS), 25 °C, aqueous buffer, kinetic from dmso stock
Procedure: These promising compounds were evaluated in in vitro ADME assays (aqueous solubility, Caco-2 permeability, plasma protein binding, and hepatocyte stability) to determine their drug-like properties (Table 4).
Verapamil hydrochloride and tamoxifen were obtained from Sigma-Aldrich. All solvents were obtained from commercial sources and used without further purification. Hydrophilic PVDF 96-well filter plates ([…]), 2 mL 96-well assay block, and 96-well UV plates were purchased from Fisher Scientific.Test compound was prepared as a 10 mM stock solution in DMSO. Aqueous suspensions of test compound at 100 µM were prepared in assay buffers. The composition of phosphate buffered saline (PBS) is 0.1 M sodium phosphate, and 0.15 M sodium chloride, adjusted to pH 7.4. The suspensions were agitated at 200 rpm for 1 hour at 25 °C. The suspensions were transferred to a 0.45 µm hydrophilic PVDF 96-well filter plate mounted on a fresh 2 mL 96-well plate and were filtered by centrifugation at 3,000 rpm for 1 min. 150 µL of filtrates were transferred to 96-well UV plate for absorbance measurement. In order to determine the optimal wavelength for detection (λmax), the absorbance spectrum of the DMSO stock solution for each compound was recorded over a broad range of wavelengths (260–450 nm) using a UV/VIS plate reader (Molecular Devices Spectramax i3). To prepare calibration curves, a 1:1 serial dilution was performed on each compound starting at 100 µM to generate calibration solutions with concentrations ranging from […] to 100 µM. The UV absorbance of calibrants was measured at λmax for each compound. Concentration of each compound in the assay solution was calculated using the corresponding calibration curve. All assay measurements were performed in duplicate. […]

[4] = Plasma protein binding (RED dialysis), rat; type: in vitro ADME; conditions: male, Sprague Dawley, pH 7.4
Source text: as §1, §2, §3, §4, §5

[5] = Plasma protein binding (RED dialysis), mouse; type: in vitro ADME; conditions: male, CD-1 (ICR), pH 7.4
Source text: as §1, §2, §3, §4, §5

Row | SMILES | Papp A→B at 120 min, 5 µM [1] [×10⁻⁶ cm/s] | efflux ratio at 120 min, 5 µM [1] | fraction unbound at 4 h, 1 µM [2] | solubility kinetic at 1 h [3] [µM] | fraction unbound at 4 h, 1 µM [4] | fraction unbound at 4 h, 1 µM [5]
1 | Cc1nc(N)c2c(-c3ccc(NC(=O)[C@H](O)c4cccc(Cl)c4)cc3F)cn(C)c2n1 [Compound 48] | 24 | 1.6 | 0.001 | 14 (≈ 6.16 µg/mL) | 0.004 | 0.002
2 | Cc1nc(N)c2c(-c3ccc(NC(=O)[C@H](O)c4cccc(F)c4)c(F)c3C)cn(C)c2n1 [Compound 65] | 26 | 1.6 | 0.004 | 58 (≈ 25.4 µg/mL) | 0.011 | 0.007
3 | Cc1nc(N)c2c(-c3ccc(NC(=O)[C@H](O)c4cc(F)cc(C(F)(F)F)c4)cc3C)cn(C)c2n1 [Compound 39] | 16 | 2 | 0.001 | 10 (≈ 4.87 µg/mL) | 0.001 | < 0.001
4 | Cc1nc(N)c2c(-c3cc(F)c(NC(=O)[C@H](O)c4cccc(F)c4)cc3C)cn(C)c2n1 [Compound 66] | 24 | 1.5 | 0.007 | 61 (≈ 26.7 µg/mL) | 0.014 | 0.012
5 | Cc1nc(N)c2c(-c3ccc(NC(=O)[C@H](O)c4cccc(F)c4)cc3C)cn(C)c2n1 [Compound 24] | 9 | 5.2 | 0.008 | 76 (≈ 31.9 µg/mL) | 0.009 | 0.006
6 | Cc1nc(N)c2c(-c3ccc(NC(=O)[C@H](O)c4cccc(F)c4)c(F)c3F)cn(C)c2n1 [Compound 70, (R)-N-(4-(4-amino-2,7-dimethyl-7H-pyrrolo[2,3-d]pyrimidin-5-yl)-2,3-difluorophenyl)-2-(3-fluorophenyl)-2-hydroxyacetamide] | 29 | 1.7 | 0.006 | 66 (≈ 29.1 µg/mL) | 0.007 | 0.003
7 | Cc1nc(N)c2c(-c3ccc(NC(=O)[C@H](O)c4cccc(C(F)(F)F)c4)cc3C)cn(C)c2n1 [Compound 26] | 21 | 2.2 | 0.002 | 19 (≈ 8.92 µg/mL) | 0.002 | 0.001
8 | Cc1nc(N)c2c(-c3ccc(NC(=O)[C@H](O)c4cccc(Cl)c4)cc3C)cn(C)c2n1 [Compound 28] | 23 | 1.9 | 0.002 | 35 (≈ 15.3 µg/mL) | 0.003 | < 0.001
9 | Cc1cc(F)cc([C@@H](O)C(=O)Nc2ccc(-c3cn(C)c4nc(C)nc(N)c34)c(C)c2)c1 [Compound 41] | 20 | 2.5 | 0.004 | 24 (≈ 10.4 µg/mL) | 0.005 | 0.001
10 | Cc1nc(N)c2c(-c3ccc(NC(=O)[C@H](O)c4cc(F)cc(F)c4)cc3C)cn(C)c2n1 [Compound 38] | 19 | 1.9 | 0.01 | 19 (≈ 8.31 µg/mL) | 0.009 | 0.008
